In ChEMBL document CHEMBL3585340, “Potent Apoptotic Response Induced by Chloroacetamidine Anthrathiophenediones in Bladder Cancer Cells” (J Med Chem, 2015):
Activity calls are given as the source filed them. The rule behind the calls is not given here.

Experiments:
[1] = system: T-24; test: Binding affinity to wild type HRAS G-quadruplex DNA (unknown origin) transfected in human T24 cells assessed as remaining expression ratio of firefly luciferase to renila luciferase reporter gene at 100 to 200 nM pretreated with cells followed by transfection measured after 48 hrs; format: cell-based
[2] = Binding affinity to 5' FAM/3' TAMRA labeled HRAS2 G-quadruplex DNA (unknown origin) by FRET analysis
[3] = Cell cycle arrest in human T24 cells assessed as accumulation at G2 phase at 5 uM after 48 hrs by propidium iodide staining-based FACS analysis (reference value: 18.5%); format: functional; conditions: T-24
[4] = system: HEK293; test: Cytotoxicity against HEK293 cells harboring wild type HRAS assessed as reduction of metabolic activity after 72 hrs by resazurin assay; format: cell-based; conditions: Homo sapiens, HEK293, 72 h
[5] = Antitumor activity against human T24 cells xenografted in nude mouse assessed as increase in mouse median survival day at 1.7 mg/kg administered intratumorally on day 1, 8, 15, 22 relative to control; format: functional, T-24
[6] = system: T-24; test: Binding affinity to mutant HRAS Mut-A plasmid (unknown origin) transfected in human T24 cells at 100 to 200 nM pretreated with cells followed by transfection measured after 48 hrs by dual luciferase reporter gene assay; format: cell-based
[7] = Cellular uptake in nucleus of human T24 cells at 5 uM after 4 hrs by confocal microscopic analysis; format: ADME, cell-based; conditions: t-24, 4 h
[8] = Cellular uptake in cytoplasm of human T24 cells at 5 uM after 4 hrs by confocal microscopic analysis; format: ADME, cell-based; conditions: t-24, 4 h
[9] = Binding affinity to 5' FAM/3' TAMRA labeled HRAS2 G-quadruplex DNA (unknown origin) assessed as change in melting temperature by FRET analysis
[10] = Cytotoxicity against human T24 cells harboring HRAS mutant assessed as reduction of metabolic activity after 72 hrs by resazurin assay; format: functional, cell-based; conditions: T-24, 72 h
[11] = Antitumor activity against human T24 cells xenografted in nude mouse assessed as mouse median survival day at 1.7 mg/kg administered intratumorally on day 1, 8, 15, 22 (reference value: 32 days); format: functional, T-24
[12] = system: T-24; test: Antitumor activity against human T24 cells xenografted in nude mouse assessed as tumor growth inhibition at 1.7 mg/kg administered intratumorally on day 1, 8, 15, 22 measured every 2 to 3 days up to 44 days; format: functional, organism-based
[13] = system: T-24; test: Induction of reactive oxygen species generation in human T24 cells at 1 to 5 uM after 24 hrs relative to control; format: functional, cell-based
[14] = system: T-24; test: Induction of apoptosis in human T24 cells assessed as activation of caspase 3/7 at 2.5 to 5 uM measured after 18 to 24 hrs by Apo-ONE assay relative to control; format: functional
[15] = Cellular uptake in human T24 cells at 5 uM at 37 degC after 4 hrs by FACS analysis; format: ADME, cell-based; conditions: t-24, 4 h
[16] = system: T-24; test: Induction of apoptosis in human T24 cells assessed as PARP-1 cleavage at 2.5 uM measured at 48 hrs by Western blot analysis relative to control; format: functional
[17] = Downregulation of cyclin D1 level in human T24 cells assessed as remaining protein level at 2.5 uM after 48 hrs by Western blot analysis; format: functional, cell-based; conditions: T-24
[18] = Cellular uptake in human T24 cells at 5 uM after 4 hrs by FACS analysis in presence of dynasore; format: ADME, cell-based; conditions: t-24, 4 h
[19] = system: T-24; test: Binding affinity to mutant HRAS Mut-B plasmid (unknown origin) transfected in human T24 cells at 100 to 200 nM pretreated with cells followed by transfection measured after 48 hrs by dual luciferase reporter gene assay; format: cell-based
[20] = Binding affinity to 5' FAM/3' TAMRA labeled HRAS2 G-quadruplex DNA (unknown origin) assessed as change in melting temperature at 5 equiv of compound (r = 5) by FRET analysis (reference value: 68.1 degreeC)
[21] = Downregulation of p21RAS protein level in human T24 cells assessed as remaining protein level at 2.5 to 5 uM after 48 hrs by Western blot analysis relative to beta-actin protein expression; format: functional, cell-based; conditions: T-24
[22] = system: T-24; test: Cytotoxicity against human T24 cells assessed as reduction of colony formation at 1 uM after 7 days by methylene blue staining-based assay; format: functional, cell-based
[23] = system: T-24; test: Inhibition of HRAS mRNA expression in human T24 cells assessed as remaining mRNA level at 5 uM after 24 hrs by RT-qPCR analysis relative to beta2-microglobulin mRNA expression; format: functional
[24] = Binding affinity to 5' FAM/3' TAMRA labeled HRAS1 G-quadruplex DNA (unknown origin) assessed as change in melting temperature by FRET analysis
[25] = Binding affinity to 5' FAM/3' TAMRA labeled HRAS1 G-quadruplex DNA (unknown origin) by FRET analysis
[26] = Cell cycle arrest in human T24 cells assessed as accumulation at G1 phase at 5 uM after 48 hrs by propidium iodide staining-based FACS analysis (reference value: 52.4%); format: functional; conditions: T-24
[27] = system: T-24; test: Induction of apoptosis in human T24 cells at 2.5 uM after 24 hrs by annexin V-FITC/propidium iodide staining-based FACS analysis (13 +/- 5%); format: functional
[28] = Cell cycle arrest in human T24 cells assessed as accumulation at G2 phase at 5 uM measured at 72 hrs by propidium iodide staining-based FACS analysis (reference value: 17.7%); format: functional; conditions: T-24
[29] = Cellular uptake in human T24 cells at 5 uM after 4 hrs by FACS analysis relative to HEK293 cells; format: ADME, cell-based; conditions: hek293, 4 h
[30] = system: T-24; test: Inhibition of HRAS mRNA expression in human T24 cells assessed as remaining mRNA level at 5 uM after 6 hrs by RT-qPCR analysis relative to beta2-microglobulin mRNA expression; format: functional
[31] = Binding affinity to 5' FAM/3' TAMRA labeled HRAS2 G-quadruplex DNA (unknown origin) assessed as change in melting temperature at 5 equiv of compound by FRET analysis in presence of 10 fold excess duplex DNA (reference value: 68.1 degreeC)
[32] = Cellular uptake in human T24 cells at 5 uM at 4 degC after 4 hrs by FACS analysis; format: ADME, cell-based; conditions: t-24, 4 h
[33] = Cellular uptake in human T24 cells at 1 to 5 uM after 4 hrs by FACS analysis; format: ADME, cell-based; conditions: t-24, 4 h
[34] = Binding affinity to 5' FAM/3' TAMRA labeled HRAS2 G-quadruplex DNA (unknown origin) assessed as change in melting temperature at 10 equiv of compound by FRET analysis (reference value: 67.2 degreeC)
[35] = system: T-24; test: Inhibition of HRAS mRNA expression in human T24 cells at 5 uM after 6 to 24 hrs by RT-qPCR analysis; format: functional, cell-based
[36] = Cell cycle arrest in human T24 cells assessed as accumulation at G2 phase at 5 uM after 48 to 72 hrs by propidium iodide staining-based FACS analysis; format: functional; conditions: T-24
[37] = Downregulation of p21RAS protein level in human T24 cells at 5 uM after 48 hrs by Western blot analysis; format: functional, cell-based; conditions: T-24
[38] = Downregulation of p21RAS protein level in human T24 cells assessed as remaining protein level at 5 uM after 48 hrs by Western blot analysis relative to beta-actin protein expression; format: functional, cell-based; conditions: T-24

Row | Structure (SMILES) | Kd [2] [µM] | IC50 [4] [µM] | Drug uptake [7] | Drug uptake [8] | ΔTm [9] [°C] | IC50 [10] [µM] | Drug uptake [15] | Activity [16] | Activity [22] | ΔTm [24] [°C] | Kd [25] [µM] | Activity [27] [%] | fold change (FC) [29] | Drug uptake [32] | Drug uptake [33] | also measured
1 | N=C(CCl)NCCNc1c2c(c(NCCNC(=N)CCl)c3sccc13)C(=O)c1ccccc1C2=O | 0.317 | 6.4 | Active | Active | 7 | 2.7 | Active | 80% | Active | 9 | 0.611 | 88 | 2 | Not Active | Active | Activity [1]: 40%; Activity [3]: 72.2%; Activity [5]: 70%; Activity [6]: inactive; MSD [11]: 54 days; TGI [12]: Active; Activity [13]: inactive; fold change (FC) [14]: 15; Activity [17]: < 10%; Drug uptake [18]: Not Active; Activity [19]: inactive; Tm [20]: 75.6 °C; Activity [21]: < 4%; Activity [23]: 34%; Activity [26]: 12.2%; Activity [28]: 44.7%; Activity [30]: 35%; Tm [31]: 75.6 °C; Tm [34]: 78.5 °C
2 | N=C(CCl)NCCCNc1c2c(c(NCCCNC(=N)CCl)c3sccc13)C(=O)c1ccccc1C2=O | 0.276 | 19.4 | Active | Active | 7 | 6.8 | – | – | – | 9 | 0.26 | – | 2 | – | Active | –
3 | N=C(N)NCCNc1c2c(c(NCCNC(=N)N)c3sccc13)C(=O)c1ccccc1C2=O | – | > 30 | – | – | – | 4.4 | – | inactive | inactive | – | – | 13 | – | – | Active | inhibition [35]: inactive; Activity [14]: inactive; Activity [36]: inactive; Activity [37]: Active
4 | N=C(CCl)NCCCNc1c2c(c(NCCNC(=N)CCl)c3sccc13)C(=O)c1ccccc1C2=O | 0.168 | 12.6 | Active | Active | 7 | 3 | Active | 80% | Active | 9 | 0.178 | 81 | 2 | Not Active | Active | Activity [3]: 66%; Activity [38]: 40%; Activity [13]: inactive; fold change (FC) [14]: 15; Activity [17]: < 10%; Drug uptake [18]: Not Active; Tm [20]: 75.8 °C; Activity [23]: 24%; Activity [26]: 28.9%; Activity [28]: 83%; Activity [30]: 45%; Tm [31]: 75.8 °C
5 | N=C(N)NCCCCNc1c2c(c(NCCCCNC(=N)N)c3sccc13)C(=O)c1ccccc1C2=O | – | > 30 | – | – | – | – | – | inactive | inactive | – | – | 13 | – | – | Active | inhibition [35]: inactive; Activity [36]: inactive; Activity [37]: Active
6 | N=C(CCl)NCCCCNc1c2c(c(NCCCCNC(=N)CCl)c3sccc13)C(=O)c1ccccc1C2=O | 0.215 | > 30 | Active | Active | 7 | 11.5 | – | – | – | 9 | 0.231 | – | 2 | – | Active | –
7 | N=C(CCl)NCCCNc1c2c(c(NCCNC(=N)CCl)c3ccsc13)C(=O)c1ccccc1C2=O | 0.221 | 10.1 | Active | Active | 7 | 2.9 | Active | – | – | 9 | 0.179 | – | 2 | Not Active | Active | –
